In patent US7939110B2, “Composition and method for treating autoimmune disease and mucosal disorder” (National Yang-Ming University, priority 2005, dated 2011):

Experiments:
[1] = tested on: C57BL/6j mice; assay: Ovalbumin-specific IgM in serum, oral tolerance model; format: in vivo
Procedure: Since it is well-known that animals can be immunized by ovalbumin (OVA) to establish the animal model for the autoimmune disease (The Journal of Pharmacology and Experimental Therapeutics 288:849-857, 1999), the present invention establishes an animal model which includes mice with OVA-induced autoimmune disease, and the mice are treated with DeCaPS to enhance oral tolerance. […] 50 μg of OVA with Complete Freund's Adjuvant (CFA) was administrated to the mice as an antigen via i.p. injection at day 8 and with OVA on day 24. OVA-specific IgG and IgM in the blood was collected at day 22 and day 30. The mice were sacrificed at day 32 to collect an intestinal lavage solution of the intestinal mucosa and the lung mucosa to detect IgA in response to OVA. The detailed experimental procedures are illustrated in the following table II.
With comparison to the IgM antibody level expressed in the control group at day 22, the IgM antibody level expressed in the normal group was decreased by about 49% (p<0.05), the IgM antibody level-expressed in the positive control group was suppressed by about 87% (p<0.05), the IgM antibody level-expressed in the DC-1 group was suppressed by about 46% (p<0.02), the IgM antibody level-expressed in the DC-2 group was suppressed by about 88% (p<0.001), and the IgM antibody level in the DC-3 group was suppressed by about 86% (p<0.001). […]

[2] = tested on: C57BL/6j mice; assay: Ovalbumin-specific IgG in serum, oral tolerance model; format: in vivo
Procedure: Since it is well-known that animals can be immunized by ovalbumin (OVA) to establish the animal model for the autoimmune disease (The Journal of Pharmacology and Experimental Therapeutics 288:849-857, 1999), the present invention establishes an animal model which includes mice with OVA-induced autoimmune disease, and the mice are treated with DeCaPS to enhance oral tolerance. C57/BL6j mice ([…]) were orally treated with 0.5 mg/ml ovalbumin (OVA) in drinking water at day 4 and day 5, and DeCaPS was administrated to the C57/BL6j mice as an adjuvant at dosages of 10 mg/kg/day, 40 mg/kg/day and 160 mg/kg/day at days 3-7. 50 μg of OVA with Complete Freund's Adjuvant (CFA) was administrated to the mice as an antigen via i.p. injection at day 8 and with OVA on day 24. OVA-specific IgG and IgM in the blood was collected at day 22 and day 30. The mice were sacrificed at day 32 to collect an intestinal lavage solution of the intestinal mucosa and the lung mucosa to detect IgA in response to OVA. The detailed experimental procedures are illustrated in the following table II. […]

[3] = day 22, positive control group (oral OVA days 1-5, no DeCaPS)
[4] = day 30, positive control group (oral OVA days 1-5, no DeCaPS)

Substance: ovalbumin [ovalbumin antigen]
- IgM antibody level suppressed vs control group [1, 3]: about 87%
- IgM antibody level suppressed vs control group [1, 4]: about 72%
- IgG antibody level suppressed vs control group [2, 3]: about 94%
- IgG antibody level suppressed vs control group [2, 4]: about 75%
